# From ChEMBL document CHEMBL5257033, “Pyrrolidinone and pyrrolidine derivatives: Evaluation as inhibitors of InhA and Mycobacterium tuberculosis” (Eur J Med Chem, 2016)
# Experiments:
# Format in all cases: functional
# [1] = system: Mycobacterium tuberculosis; experiment: Antimycobacterial activity against Mycobacterium tuberculosis 53.3 harboring Rv2466c W28S mutant assessed as inhibition of bacterial growth measured after 21 days by microbroth dilution method; details: time 21 day
# [2] = system: Mycobacterium tuberculosis; experiment: Antimycobacterial activity against Mycobacterium tuberculosis Ty1 harboring Rv3405c C190T mutant assessed as inhibition of bacterial growth measured after 21 days by microbroth dilution method; details: time 21 day
# [3] = system: Mycobacterium tuberculosis; experiment: Antimycobacterial activity against Mycobacterium tuberculosis 81.10 harboring EthA del (1109 to 37 residues) mutant assessed as inhibition of bacterial growth measured after 21 days by microbroth dilution method; details: time 21 day
# [4] = system: Mycobacterium tuberculosis; experiment: Antimycobacterial activity against streptomycin, isoniazid, rifampicin, ethambutol, pyrazinamide, ethionamide and capreomycin resistant Mycobacterium tuberculosis IC2 assessed as inhibition of bacterial growth measured after 21 days by microbroth dilution method; details: IC2, 504 h, time 21 day
# [5] = system: Mycobacterium tuberculosis; experiment: Antimycobacterial activity against Mycobacterium tuberculosis NTB1 harboring DprE1 G387S mutant assessed as inhibition of bacterial growth measured after 21 days by microbroth dilution method; details: time 21 day
# [6] = system: Mycobacterium tuberculosis; experiment: Antimycobacterial activity against Mycobacterium tuberculosis DR1 harboring mmpL3 V681I mutant assessed as inhibition of bacterial growth measured after 21 days by microbroth dilution method; details: time 21 day
# [7] = system: Mycobacterium tuberculosis; experiment: Antimycobacterial activity against Mycobacterium tuberculosis 88.7 harboring pyrG V186G mutant assessed as inhibition of bacterial growth measured after 21 days by microbroth dilution method; details: time 21 day
Structure (SMILES),MIC [1] [µg/mL],MIC [2] [µg/mL],MIC [3] [µg/mL],MIC [4] [µg/mL],MIC [5] [µg/mL],MIC [6] [µg/mL],MIC [7] [µg/mL]
Clc1ccc(CN2CCC(C3c4ccccc4-c4ccccc43)C2)cc1 (centres undefined),0.5,0.5,0.5,0.5,0.5,0.5,0.5
NNC(=O)c1ccncc1 [ISONIAZID],0.025,0.025,0.025,> 0.2,0.025,0.025,0.025
